The values below come from ChEMBL document CHEMBL5344452, “TYK2 Inhibitors for Treating Autoimmune and Inflammatory Diseases” (ACS Med Chem Lett, 2024).

A value given as a limit tells only on which side of the number the result lay.

In this test the target is Non-receptor tyrosine-protein kinase TYK2 (Homo sapiens, UniProt P29597). The test can be described thus: Inhibition of human TYK2 JH2 domain (575 to 876 residues) incubated for 60 mins by TR-FRET assay. (TR-FRET usually uses a lanthanide donor and a delayed reading to cut background.)
Non-receptor tyrosine-protein kinase TYK2, sequence (P29597 whole entry, the tested form may be a part): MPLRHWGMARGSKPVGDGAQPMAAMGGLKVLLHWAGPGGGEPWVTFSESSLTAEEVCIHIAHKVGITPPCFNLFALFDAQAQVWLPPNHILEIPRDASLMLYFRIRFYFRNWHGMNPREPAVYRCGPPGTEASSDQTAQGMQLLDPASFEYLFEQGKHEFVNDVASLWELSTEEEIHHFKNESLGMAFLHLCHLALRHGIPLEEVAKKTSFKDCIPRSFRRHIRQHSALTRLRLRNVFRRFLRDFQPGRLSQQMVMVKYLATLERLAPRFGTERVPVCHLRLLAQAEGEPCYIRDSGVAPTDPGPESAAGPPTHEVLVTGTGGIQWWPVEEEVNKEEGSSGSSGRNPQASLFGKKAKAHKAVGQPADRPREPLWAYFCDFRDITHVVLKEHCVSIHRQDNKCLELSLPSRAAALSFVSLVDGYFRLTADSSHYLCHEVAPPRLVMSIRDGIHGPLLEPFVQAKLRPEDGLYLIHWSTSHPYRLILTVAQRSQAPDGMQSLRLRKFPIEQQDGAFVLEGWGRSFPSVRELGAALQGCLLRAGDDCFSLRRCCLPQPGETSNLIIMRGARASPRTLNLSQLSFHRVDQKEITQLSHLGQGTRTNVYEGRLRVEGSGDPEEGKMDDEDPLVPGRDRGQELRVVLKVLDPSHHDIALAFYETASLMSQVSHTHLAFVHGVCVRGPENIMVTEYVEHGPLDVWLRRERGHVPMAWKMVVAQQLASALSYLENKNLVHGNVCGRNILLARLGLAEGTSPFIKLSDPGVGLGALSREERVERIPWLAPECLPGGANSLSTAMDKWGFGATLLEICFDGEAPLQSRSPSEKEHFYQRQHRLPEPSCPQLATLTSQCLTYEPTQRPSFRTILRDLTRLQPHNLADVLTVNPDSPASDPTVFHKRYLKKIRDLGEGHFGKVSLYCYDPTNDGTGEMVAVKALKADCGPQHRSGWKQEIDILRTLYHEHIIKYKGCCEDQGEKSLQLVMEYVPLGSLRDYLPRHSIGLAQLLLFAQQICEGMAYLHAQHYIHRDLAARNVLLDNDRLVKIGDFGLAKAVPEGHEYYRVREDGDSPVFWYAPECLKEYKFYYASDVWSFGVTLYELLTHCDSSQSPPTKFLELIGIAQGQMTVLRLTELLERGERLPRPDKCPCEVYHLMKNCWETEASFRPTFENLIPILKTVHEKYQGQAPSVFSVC

`CC(=O)Nc1cc2c(cn1)c(-c1ccc(C)nc1)nn2-c1ccnc(C(C)(F)F)n1`: the IC50 – broadly, the concentration needed to halve the response being measured – is not above 10 nM.

The compound `COC1CC(Oc2cc(C3CCOC3)nc(-n3nc(C4CC4)c4cnc(NC(C)=O)cc43)c2)C1` (stereo unspecified) displayed an IC50 not above 10 nM.

In turn, `CC(=O)Nc1cc2c(cn1)c(C)nn2-c1cccc(C2CCOC2)n1` (stereo unspecified) gave an IC50 not above 10 nM.

As to `CC(=O)Nc1cc2c(cn1)c(-c1ccn(C)n1)nn2-c1ccnc(C(C)(F)F)n1`, the IC50 is not above 10 nM.

Turning to `CC(=O)Nc1cc2c(cn1)c(N1CC3(COC3)C1)nn2-c1nccc(C(C)(F)F)n1`, the IC50 is not above 10 nM.

The compound `CC(=O)Nc1cc2c(cn1)c(C)nn2-c1nc(C2CCOC2)c(C)s1` (stereo unspecified) showed a concentration for half-maximal inhibition (IC50) not above 10 nM.
